Data as given in patent publication US8198273B2, “Compounds and methods for kinase modulation, and indications therefor” (Plexxikon Inc., priority 2009, dated 2012).

Assays:
CYP2C9 = CYP2C9 (Homo sapiens, UniProt P11712); assay: CYP2C9 inhibition (fluorescent substrate); format: in vitro ADME; settings: CYP2C9, MFC substrate; read-out: Cyp IC50 2C9
Summary of the method: (§1)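 10-pt 1:1 serial dilution in co-factor mix (DMSO stock 100 mM); 10 min preincubation, 37 °C; reaction at 37 °C. Readout: fluorescent metabolite of probe substrate. IC50 from signal vs [compound].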

[1] = tested on: SW620 colon adenocarcinoma cells (wild-type B-RAF); assay: SW620 cell growth inhibition (ATPlite); format: cell-based; settings: Homo sapiens, SW-620, 72 h; SW620, 3 days incubation
Summary of the method: (§2)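 ATPlite luminescence, taken as a cell-number measure, gave IC50 values after a 3-day 37° C, 5% CO2 incubation. Compounds were tested as 8-point threefold titrations, highest final concentration 10 μM, added to cells seeded the day before.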

[2] = tested on: A375 melanoma cells (B-Raf V600E); assay: A375 cell growth inhibition (ATPlite); format: cell-based; settings: Homo sapiens, A-375, 72 h; A375, 3 days incubation
Summary of the method: as §2

[3] = tested on: SKMEL2 melanoma cells (Ras mutation); assay: SKMEL2 cell growth inhibition (ATPlite); format: cell-based; settings: Homo sapiens, SK-MEL-2, 72 h; SKMEL2, 3 days incubation
Summary of the method: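 SKMEL2 cells seeded at 2,000 per well overnight, then exposed to an 8-point 1:3 compound titration (top 10 μM final) for 3 days at 37 °C. ATPlite luminescence used as a measure of cell number to derive IC50.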

CYP2D6 = CYP2D6 (Homo sapiens, UniProt P10635); assay: CYP2D6 inhibition (fluorescent substrate); format: in vitro ADME; settings: CYP2D6, AMMC substrate; read-out: Cyp IC50 2D6
Summary of the method: as §1

[4] = tested on: COLO205 colon adenocarcinoma cells (B-Raf V600E); assay: COLO205 cell growth inhibition (ATPlite); format: cell-based; settings: Homo sapiens, COLO 205, 72 h; COLO205, 3 days incubation
Summary of the method: as §2

Chain of CYP2C9 (P11712 whole entry): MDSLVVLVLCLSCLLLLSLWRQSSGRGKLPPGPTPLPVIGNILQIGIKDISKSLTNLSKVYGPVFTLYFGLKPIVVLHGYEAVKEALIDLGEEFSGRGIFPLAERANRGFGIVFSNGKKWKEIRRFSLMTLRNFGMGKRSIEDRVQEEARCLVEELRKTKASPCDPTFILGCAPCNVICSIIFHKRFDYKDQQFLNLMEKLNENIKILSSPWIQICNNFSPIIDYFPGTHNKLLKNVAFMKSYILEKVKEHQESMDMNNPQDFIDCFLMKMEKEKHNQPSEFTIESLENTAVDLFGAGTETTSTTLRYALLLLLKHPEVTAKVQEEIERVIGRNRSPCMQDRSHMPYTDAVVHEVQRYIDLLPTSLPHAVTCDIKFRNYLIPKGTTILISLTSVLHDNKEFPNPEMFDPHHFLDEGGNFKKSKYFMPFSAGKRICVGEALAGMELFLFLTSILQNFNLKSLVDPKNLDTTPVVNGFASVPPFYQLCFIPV
Chain of CYP2D6 (P10635 whole entry): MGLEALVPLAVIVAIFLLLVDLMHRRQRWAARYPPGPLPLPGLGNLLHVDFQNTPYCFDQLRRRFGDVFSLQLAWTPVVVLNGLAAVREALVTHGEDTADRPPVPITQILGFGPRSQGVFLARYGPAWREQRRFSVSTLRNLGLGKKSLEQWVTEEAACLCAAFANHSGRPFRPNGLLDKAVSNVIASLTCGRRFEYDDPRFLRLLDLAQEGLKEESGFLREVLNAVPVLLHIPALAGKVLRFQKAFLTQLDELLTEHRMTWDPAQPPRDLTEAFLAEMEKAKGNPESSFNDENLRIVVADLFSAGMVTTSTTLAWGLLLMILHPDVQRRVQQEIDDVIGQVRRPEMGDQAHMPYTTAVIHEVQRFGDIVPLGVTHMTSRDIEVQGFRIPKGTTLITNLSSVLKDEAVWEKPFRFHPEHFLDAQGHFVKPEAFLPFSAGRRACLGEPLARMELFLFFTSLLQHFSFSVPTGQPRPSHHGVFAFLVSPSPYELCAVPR

Row | IC50 (CYP2C9) [µM] | IC50 [1] [µM] | IC50 [2] [µM] | IC50 [3] [µM] | IC50 (CYP2D6) [µM] | IC50 [4] [µM] | SMILES
1 | < 5 | > 10 | < 1 | < 10 | > 10 | < 1 | CCCS(=O)(=O)Nc1ccc(F)c(C(=O)c2c[nH]c3ncc(-c4cnc(SC)nc4)cc23)c1F [P-2189, Propane-1-sulfonic acid {2,4-difluoro-3-[5-(2-methylsulfanyl-pyrimidin-5-yl)-1H-pyrrolo[2,3-b]pyridine-3-carbonyl]-phenyl}-amide]
2 | > 10 | > 10 | < 1 | > 10 | > 10 | < 1 | CCCS(=O)(=O)Nc1ccc(F)c(C(=O)c2c[nH]c3ncc(-c4ccc(NC(C)=O)nc4)cc23)c1F [P-2193, N-(5-{3-[2,6-Difluoro-3-(propane-1-sulfonylamino)-benzoyl]-1H-pyrrolo[2,3-b]pyridin-5-yl}-pyridin-2-yl)-acetamide]
3 | 5 to 10 | > 10 | < 1 | > 10 | > 10 | < 1 | CCCS(=O)(=O)Nc1ccc(F)c(C(=O)c2c[nH]c3ncc(-c4cnc(N(C)C)nc4)cc23)c1F [P-2196, Propane-1-sulfonic acid {3-[5-(2-dimethylamino-pyrimidin-5-yl)-1H-pyrrolo[2,3-b]pyridine-3-carbonyl]-2,4-difluoro-phenyl}-amide]
4 | > 10 | > 10 | < 1 | > 10 | > 10 | < 1 | CCCS(=O)(=O)Nc1ccc(F)c(C(=O)c2c[nH]c3ncc(-c4cnc(C)nc4)cc23)c1F [P-2211, Propane-1-sulfonic acid {2,4-difluoro-3-[5-(2-methyl-pyrimidin-5-yl)-1H-pyrrolo[2,3-b]pyridine-3-carbonyl]-phenyl}-amide]
5 | < 5 | < 20 | < 1 | > 10 | > 10 | < 1 | CCCS(=O)(=O)Nc1ccc(F)c(C(=O)c2c[nH]c3ncc(-c4ccc(C)nc4)cc23)c1F [P-2213, Propane-1-sulfonic acid {2,4-difluoro-3-[5-(6-methyl-pyridin-3-yl)-1H-pyrrolo[2,3-b]pyridine-3-carbonyl]-phenyl}-amide]
6 | > 10 | < 20 | < 1 | > 10 | > 10 | < 1 | CCCS(=O)(=O)Nc1ccc(F)c(C(=O)c2c[nH]c3ncc(-c4ccc(N)nc4)cc23)c1F [P-2214, Propane-1-sulfonic acid {3-[5-(6-amino-pyridin-3-yl)-1H-pyrrolo[2,3-b]pyridine-3-carbonyl]-2,4-difluoro-phenyl}-amide]
7 | > 10 | < 20 | < 0.1 | > 10 | > 10 | < 0.1 | CCCS(=O)(=O)Nc1ccc(F)c(C(=O)c2c[nH]c3ncc(-c4ccc(S(=O)(=O)CC)cc4)cc23)c1F [P-2218, Propane-1-sulfonic acid {3-[5-(4-ethanesulfonyl-phenyl)-1H-pyrrolo[2,3-b]pyridine-3-carbonyl]-2,4-difluoro-phenyl}-amide]
8 | > 10 | > 10 | < 0.1 | > 10 | > 10 | < 0.1 | CCCS(=O)(=O)Nc1ccc(F)c(C(=O)c2c[nH]c3ncc(-c4cnc(N5CCCC5)nc4)cc23)c1F [P-2219, Propane-1-sulfonic acid {2,4-difluoro-3-[5-(2-pyrrolidin-1-yl-pyrimidin-5-yl)-1H-pyrrolo[2,3-b]pyridine-3-carbonyl]-phenyl}-amide]
9 | 5 to 10 | > 10 | < 1 | < 20 | > 10 | < 1 | CCCS(=O)(=O)Nc1ccc(F)c(C(=O)c2c[nH]c3ncc(C#CCOC)cc23)c1F [P-2239, Propane-1-sulfonic acid {2,4-difluoro-3-[5-(3-methoxy-prop-1-ynyl)-1H-pyrrolo[2,3-b]pyridine-3-carbonyl]-phenyl}-amide]
10 | > 10 | > 10 | < 1 | < 20 | > 10 | < 1 | CCCS(=O)(=O)Nc1cccc(C(=O)c2c[nH]c3ncc(-c4cnc(OC)nc4)cc23)c1F [P-2407, Propane-1-sulfonic acid {2-fluoro-3-[5-(2-methoxy-pyrimidin-5-yl)-1H-pyrrolo[2,3-b]pyridine-3-carbonyl]-phenyl}-amide]
